Measured values taken from ChEMBL document CHEMBL3862022, “Synthesis and biological evaluation of lovastatin-derived aliphatic hydroxamates that induce reactive oxygen species” (Bioorg Med Chem Lett, 2016).
Calls of active or inactive are those of the source. The rule behind the calls is not given here.

Columns and labels:
[1] = Cytotoxicity against human PC3 cells assessed as growth inhibition after 48 hrs by SRB assay; assay type: functional, cell-based; settings: PC-3, 48 h
[2] = Induction of reactive oxygen species in human MDA-MB-231 cells at 10 uM after 24 hrs by DCFH-DA probe-based flow cytometric method; assay type: physicochemical, cell-based; settings: mda-mb-231, 24 h
[3] = Cytotoxicity against human T47D cells assessed as growth inhibition after 24 to 48 hrs by MTT assay; assay type: functional, cell-based
[4] = Cytotoxicity against human MDA-MB-231 cells assessed as growth inhibition after 24 to 48 hrs by MTT assay; assay type: functional, cell-based
[5] = Cytotoxicity against human MCF7 cells assessed as growth inhibition after 24 to 48 hrs by MTT assay; assay type: functional, cell-based
[6] = target: T1, Serine/threonine-protein kinase Chk1/2 (Homo sapiens) (UniProt O96017+O14757); assay: Induction of CHK1/2 phosphorylation in human MDA-MB-231 cells assessed as increase in p53 phosphorylation at 10 uM after 6 to 24 hrs by Western blot method; assay type: cell-based
[7] = Induction of reactive oxygen species in human MDA-MB-231 cells at 30 uM after 24 hrs by DCFH-DA probe-based flow cytometric method; assay type: physicochemical, cell-based; settings: mda-mb-231, 24 h
[8] = target: Serine-protein kinase ATM (Homo sapiens) (UniProt Q13315); assay: Induction of ATM phosphorylation in human MDA-MB-231 cells at 10 uM after 6 to 24 hrs by Western blot method; assay type: cell-based
[9] = target: Serine/threonine-protein kinase Chk2 (Homo sapiens) (UniProt O96017); assay: Induction of CHK2 phosphorylation in human MDA-MB-231 cells at 10 uM after 6 to 24 hrs by Western blot method; assay type: cell-based
MDA-MB-231 [10] = assay: Induction of DNA damage in human MDA-MB-231 cells assessed as phosphorylation of gammaH2AX at IC50 to 3 times IC50 after 48 hrs by flow cytometric analysis; assay type: functional, cell-based
MDA-MB-231 [11] = assay: Binding affinity to DNA minor groove in human MDA-MB-231 cells up to 100 uM after 20 mins by Hoechst 33342 staining-based fluorometric method; assay type: cell-based
[12] = Cytotoxicity against human IMR90 cells assessed as growth inhibition up to 40 uM after 24 to 48 hrs by MTT assay; assay type: toxicity, cell-based; settings: imr-90
MDA-MB-231 [13] = assay: Induction of apoptosis in human MDA-MB-231 cells assessed as PARP cleavage by flow cytometric method; assay type: functional, cell-based
[14] = target: T1, Serine/threonine-protein kinase Chk1/2 (Homo sapiens); assay: Induction of CHK1/2 phosphorylation in human MDA-MB-231 cells assessed as increase in p21 protein expression at 10 uM after 6 to 24 hrs by Western blot method; assay type: cell-based
[15] = target: T2, Serine/threonine-protein kinase Chk1 (Homo sapiens) (UniProt O14757); assay: Induction of CHK1 phosphorylation in human MDA-MB-231 cells at 10 uM after 6 to 24 hrs by Western blot method; assay type: cell-based
T2 sequence (whole entry): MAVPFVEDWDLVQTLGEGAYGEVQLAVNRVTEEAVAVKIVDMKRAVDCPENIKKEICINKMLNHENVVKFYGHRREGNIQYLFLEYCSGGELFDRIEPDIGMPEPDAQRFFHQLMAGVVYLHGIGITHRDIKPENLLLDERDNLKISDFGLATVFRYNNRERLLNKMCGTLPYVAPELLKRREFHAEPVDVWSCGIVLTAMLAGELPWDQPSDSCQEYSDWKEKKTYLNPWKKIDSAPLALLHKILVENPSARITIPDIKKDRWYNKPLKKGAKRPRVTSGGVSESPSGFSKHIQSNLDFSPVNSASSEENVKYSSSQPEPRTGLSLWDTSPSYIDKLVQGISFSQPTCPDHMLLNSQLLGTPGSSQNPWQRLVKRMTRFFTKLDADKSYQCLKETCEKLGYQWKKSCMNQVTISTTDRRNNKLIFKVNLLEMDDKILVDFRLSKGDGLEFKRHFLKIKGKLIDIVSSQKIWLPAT

[16] = Cell cycle arrest in human MDA-MB-231 cells assessed as accumulation at S phase at 32 uM after 6 to 12 hrs by propidium iodide staining-based flow cytometric method; assay type: functional

T1 sequence (O96017 whole entry, looked up, one chain of several): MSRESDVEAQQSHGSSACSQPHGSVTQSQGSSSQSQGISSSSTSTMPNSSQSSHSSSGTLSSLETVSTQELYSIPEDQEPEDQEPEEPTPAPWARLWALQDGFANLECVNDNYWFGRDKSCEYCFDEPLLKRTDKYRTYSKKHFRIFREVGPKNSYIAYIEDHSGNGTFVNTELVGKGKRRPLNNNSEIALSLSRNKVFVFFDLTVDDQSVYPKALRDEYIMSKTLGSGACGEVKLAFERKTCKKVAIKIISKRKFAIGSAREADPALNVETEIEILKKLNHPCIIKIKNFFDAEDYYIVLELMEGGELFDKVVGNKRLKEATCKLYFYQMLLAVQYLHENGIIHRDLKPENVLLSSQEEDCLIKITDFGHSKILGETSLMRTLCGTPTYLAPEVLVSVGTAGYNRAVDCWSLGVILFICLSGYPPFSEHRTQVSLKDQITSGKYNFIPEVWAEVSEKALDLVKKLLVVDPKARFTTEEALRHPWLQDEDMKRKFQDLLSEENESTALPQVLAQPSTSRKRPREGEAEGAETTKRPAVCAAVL
Serine-protein kinase ATM (Homo sapiens), sequence (Q13315 whole entry): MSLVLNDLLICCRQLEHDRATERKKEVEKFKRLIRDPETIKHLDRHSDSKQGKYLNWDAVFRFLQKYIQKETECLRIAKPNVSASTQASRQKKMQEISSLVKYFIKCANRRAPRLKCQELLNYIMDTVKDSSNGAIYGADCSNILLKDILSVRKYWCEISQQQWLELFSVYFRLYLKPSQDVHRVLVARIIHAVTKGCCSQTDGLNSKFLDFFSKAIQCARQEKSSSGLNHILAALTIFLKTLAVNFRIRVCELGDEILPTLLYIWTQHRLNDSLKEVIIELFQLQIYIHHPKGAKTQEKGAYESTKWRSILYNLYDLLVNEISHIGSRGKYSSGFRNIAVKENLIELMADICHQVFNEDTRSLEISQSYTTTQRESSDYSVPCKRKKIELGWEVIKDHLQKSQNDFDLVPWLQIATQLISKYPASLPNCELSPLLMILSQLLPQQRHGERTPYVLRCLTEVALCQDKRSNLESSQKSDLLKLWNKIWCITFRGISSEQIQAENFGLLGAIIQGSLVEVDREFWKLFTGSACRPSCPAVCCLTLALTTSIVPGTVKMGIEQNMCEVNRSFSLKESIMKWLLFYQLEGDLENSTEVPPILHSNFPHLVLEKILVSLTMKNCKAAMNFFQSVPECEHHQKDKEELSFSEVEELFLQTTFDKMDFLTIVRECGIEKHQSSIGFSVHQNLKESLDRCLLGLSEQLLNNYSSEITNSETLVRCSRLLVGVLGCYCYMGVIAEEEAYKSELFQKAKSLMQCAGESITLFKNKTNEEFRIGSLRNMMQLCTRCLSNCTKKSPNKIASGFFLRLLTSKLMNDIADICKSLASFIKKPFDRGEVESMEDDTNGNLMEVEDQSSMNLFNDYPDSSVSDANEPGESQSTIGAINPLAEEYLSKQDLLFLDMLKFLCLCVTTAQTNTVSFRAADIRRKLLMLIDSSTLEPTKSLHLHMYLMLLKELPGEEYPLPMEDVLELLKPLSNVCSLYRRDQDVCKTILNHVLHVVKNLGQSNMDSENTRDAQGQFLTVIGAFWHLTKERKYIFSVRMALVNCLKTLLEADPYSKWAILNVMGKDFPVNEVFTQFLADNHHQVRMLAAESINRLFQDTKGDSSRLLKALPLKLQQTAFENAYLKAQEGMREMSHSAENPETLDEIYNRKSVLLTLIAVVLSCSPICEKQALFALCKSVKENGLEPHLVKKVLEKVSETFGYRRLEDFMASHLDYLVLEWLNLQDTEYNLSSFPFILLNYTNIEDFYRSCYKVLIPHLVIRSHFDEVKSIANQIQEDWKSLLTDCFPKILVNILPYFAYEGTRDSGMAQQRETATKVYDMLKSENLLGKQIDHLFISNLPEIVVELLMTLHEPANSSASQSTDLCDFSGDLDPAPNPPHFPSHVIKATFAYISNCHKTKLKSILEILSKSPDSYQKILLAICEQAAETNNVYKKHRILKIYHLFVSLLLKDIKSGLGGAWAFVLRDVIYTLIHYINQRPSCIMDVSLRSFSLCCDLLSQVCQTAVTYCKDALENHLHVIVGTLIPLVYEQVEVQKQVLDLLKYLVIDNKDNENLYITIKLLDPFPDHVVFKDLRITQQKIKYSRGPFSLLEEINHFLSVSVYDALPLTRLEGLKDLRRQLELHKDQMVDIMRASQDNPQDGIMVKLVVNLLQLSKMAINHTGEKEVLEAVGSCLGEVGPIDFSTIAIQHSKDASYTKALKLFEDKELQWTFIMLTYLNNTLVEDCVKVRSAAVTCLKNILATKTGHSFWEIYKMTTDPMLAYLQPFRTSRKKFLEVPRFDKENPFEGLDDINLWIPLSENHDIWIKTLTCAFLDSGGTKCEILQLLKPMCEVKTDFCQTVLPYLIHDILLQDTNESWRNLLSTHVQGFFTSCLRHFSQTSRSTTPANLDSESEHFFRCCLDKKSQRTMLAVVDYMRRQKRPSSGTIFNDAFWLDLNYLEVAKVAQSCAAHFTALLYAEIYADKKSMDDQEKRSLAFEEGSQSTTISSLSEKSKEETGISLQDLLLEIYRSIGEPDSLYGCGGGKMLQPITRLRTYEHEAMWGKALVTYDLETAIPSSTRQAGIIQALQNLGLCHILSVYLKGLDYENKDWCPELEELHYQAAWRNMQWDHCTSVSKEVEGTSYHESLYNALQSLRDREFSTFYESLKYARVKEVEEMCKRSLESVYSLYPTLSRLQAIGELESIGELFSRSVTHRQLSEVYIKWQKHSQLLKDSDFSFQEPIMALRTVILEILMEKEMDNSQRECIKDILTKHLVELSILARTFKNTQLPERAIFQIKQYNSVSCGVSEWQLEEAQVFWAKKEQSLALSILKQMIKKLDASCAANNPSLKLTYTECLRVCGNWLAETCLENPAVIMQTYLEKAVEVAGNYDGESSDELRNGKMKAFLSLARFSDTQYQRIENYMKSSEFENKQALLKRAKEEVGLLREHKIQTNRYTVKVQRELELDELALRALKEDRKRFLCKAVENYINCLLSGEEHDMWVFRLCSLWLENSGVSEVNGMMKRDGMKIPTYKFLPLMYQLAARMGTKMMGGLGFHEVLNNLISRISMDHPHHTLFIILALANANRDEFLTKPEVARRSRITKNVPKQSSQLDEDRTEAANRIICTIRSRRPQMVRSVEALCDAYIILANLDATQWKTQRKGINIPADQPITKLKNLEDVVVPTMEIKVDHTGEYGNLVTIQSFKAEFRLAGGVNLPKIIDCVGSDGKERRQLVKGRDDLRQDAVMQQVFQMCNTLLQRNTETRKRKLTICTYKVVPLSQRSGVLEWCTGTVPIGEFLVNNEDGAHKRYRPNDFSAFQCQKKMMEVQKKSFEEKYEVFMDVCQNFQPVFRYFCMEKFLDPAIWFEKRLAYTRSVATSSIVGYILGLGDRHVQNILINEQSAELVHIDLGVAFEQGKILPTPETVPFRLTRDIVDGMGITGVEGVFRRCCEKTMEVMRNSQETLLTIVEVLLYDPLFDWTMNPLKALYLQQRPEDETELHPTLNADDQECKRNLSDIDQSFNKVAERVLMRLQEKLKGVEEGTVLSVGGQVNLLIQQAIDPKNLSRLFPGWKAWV
Serine/threonine-protein kinase Chk2 (Homo sapiens), sequence (O96017 whole entry): as the sequence (O96017 whole entry, looked up, one chain of several) above

Row | Compound | IC50 [1] | Activity [2] | further results
1 | C[C@H]1C=C2C=C[C@H](C)[C@H](CC[C@@H](O)C[C@H](O)CC(=O)NO)[C@H]2[C@@H](O)C1 | > 30 µM | Active | 
2 | CC[C@H](C)C(=O)O[C@H]1C[C@@H](C)C=C2C=C[C@H](C)[C@H](CC[C@@H](O)C[C@@H](CC(=O)NO)OC(=O)c3ccc(Cl)cc3)[C@H]21 | 21.7 µM | Active | 
3 | CC[C@H](C)C(=O)O[C@H]1C[C@@H](C)C=C2C=C[C@H](C)[C@H](CC[C@@H](O)C[C@@H](CC(=O)NO)OC(=O)C(C)(C)C)[C@H]21 | 7.2 µM | Active | 
4 | CC[C@H](C)C(=O)O[C@H]1C[C@@H](C)C=C2C=C[C@H](C)[C@H](CC[C@@H]3C[C@@H](O)CC(=O)O3)[C@H]21 [LOVASTATIN] | 5.4 µM |  | IC50 [3]: > 40 µM; IC50 [4]: > 40 µM; IC50 [5]: > 40 µM; Activity [6]: Active; Activity [7]: Active; Activity [8]: Active
5 | CC[C@H](C)C(=O)O[C@H]1C[C@@H](C)C=C2C=C[C@H](C)[C@H](CC[C@@H](O)C[C@@H](CC(=O)NO)OC(=O)CCc3ccccc3)[C@H]21 | 6.2 µM | Active | 
6 | CC[C@H](C)C(=O)O[C@H]1C[C@@H](C)C=C2C=C[C@H](C)[C@H](CC[C@@H](O)C[C@@H](CC(=O)NO)OC(C)=O)[C@H]21 | 11.4 µM | Active | 
7 | CC[C@H](C)C(=O)O[C@H]1C[C@@H](C)C=C2C=C[C@H](C)[C@H](CC[C@@H](O)C[C@@H](CC(=O)NO)OC(=O)c3ccc([N+](=O)[O-])cc3)[C@H]21 | 8.2 µM | Active | 
8 | CC[C@H](C)C(=O)O[C@H]1C[C@@H](C)C=C2C=C[C@H](C)[C@H](CC[C@@H](O)C[C@@H](CC(=O)NO)OC(=O)c3ccccc3)[C@H]21 | 3.3 µM | Active | Activity [9]: Active; IC50 [3]: 30 to 40 µM; IC50 [4]: 30 to 40 µM; Activity (MDA-MB-231 [10]): Active; Activity (MDA-MB-231 [11]): Active; IC50 [5]: 30 to 40 µM; Activity [12]: Non-Toxic; Activity (MDA-MB-231 [13]): Dose-dependent effect; Activity [6]: Active; Activity [8]: Active; Activity [14]: Active; Activity [15]: Active; Activity [16]: Active
9 | CC[C@H](C)C(=O)O[C@H]1C[C@@H](C)C=C2C=C[C@H](C)[C@H](CC[C@@H](O)C[C@@H](CC(=O)NO)OC(=O)Cc3ccccc3)[C@H]21 | 5.8 µM | Active | 
10 | CC[C@H](C)C(=O)O[C@H]1C[C@@H](C)C=C2C=C[C@H](C)[C@H](CC[C@@H](O)C[C@@H](CC(=O)NO)OC(=O)c3ccc4ccccc4c3)[C@H]21 | 17.3 µM | Active | 
11 | CC[C@H](C)C(=O)O[C@H]1C[C@@H](C)C=C2C=C[C@H](C)[C@H](CC[C@@H](O)C[C@@H](CC(=O)NO)OC(=O)c3ccc(OC(F)(F)F)cc3)[C@H]21 | 20.3 µM | Active | 
